Measurements published in patent publication US9247759B2, “Identification of human T2R receptors that respond to bitter compounds that elicit the bitter taste in compositions, and the use thereof in assays to identify compounds that inhibit (block) bitter taste in compositions and use thereof” (SENOMYX, INC., priority 2007, dated 2016).
Read-outs that look alike come from different tables or passages of the source.

Assays:
hT2R44 = assay: hT2R panel inhibition, transient HEK293 G16g44, agonist Denatonium 0.5 μM; assay type: cell-based, human; settings: compound at 25 μM; for screening result against bitter receptor 44: receptor activated to EC80 with the corresponding agonist
Protocol: (§1) Specifically, in order to evaluate the inhibitory selectivity of the Compound C compound, this compound was tested against 22 human T2Rs which were deorphaned by Senomyx. These receptors and the bitter ligands that activate these human T2Rs are reported in earlier patent applications which are incorporated by reference herein. These 22 human T2Rs are hT2R1, 3, 4, 5, 7, 8, 9, 10, 13, 14, 16, 44, 51, 54, 55, 61, 63, 64, 65, 67, 71 and 75. The amino acid and nucleic acid sequences of all of these T2Rs may be found in these earlier patent applications. These human T2Rs were each individually transiently transfected into HEK293 cells that stably express the promiscuous G protein G16g44 and functional assays were effected using these receptors as disclosed in these same patent applications. […] The ligands were used at EC80 concentration levels. The list of bitter ligands utilized and the tested ligand concentrations are contained in Table 5 of this example.
(§2) Relating to the foregoing, FIG. 5 contains experimental results wherein Compound C was tested with different agonist compounds. The inhibition activity is represented by the reduction of receptor activity in the presence of Compound C. […] These 13 hT2Rs are hT2R3, 7, 10, 14, 16, 44, 51, 55, 61, 63, 64, 65, and 71.

hT2R55 = assay: hT2R panel inhibition, transient HEK293 G16g44, agonist Cinchonine 150 μM; assay type: cell-based, human; settings: compound at 25 μM; receptor activated to EC80 with the corresponding agonist
Protocol: as §1, §2

hT2R63 = assay: hT2R panel inhibition, transient HEK293 G16g44, agonist Caffeine 1 mM or Andrographolide 100 μM; assay type: cell-based, human; settings: compound at 25 μM; for screening result against bitter receptor 63: receptor activated to EC80 with the corresponding agonist; for inhibition of bitter receptor 63: receptor activated to EC80 with agonist
Protocol: as §1, §2

hT2R3 = hT2R3 (Homo sapiens (Human), UniProt Q9NYW6); assay: hT2R panel inhibition, transient HEK293 G16g44, agonist Chloroquine pH6.5 50 μM; assay type: cell-based; settings: HEK293, compound at 25 μM; receptor activated to EC80 with the corresponding agonist; read-out: screening result against bitter receptor 3
hT2R3, sequence (Q9NYW6 whole entry): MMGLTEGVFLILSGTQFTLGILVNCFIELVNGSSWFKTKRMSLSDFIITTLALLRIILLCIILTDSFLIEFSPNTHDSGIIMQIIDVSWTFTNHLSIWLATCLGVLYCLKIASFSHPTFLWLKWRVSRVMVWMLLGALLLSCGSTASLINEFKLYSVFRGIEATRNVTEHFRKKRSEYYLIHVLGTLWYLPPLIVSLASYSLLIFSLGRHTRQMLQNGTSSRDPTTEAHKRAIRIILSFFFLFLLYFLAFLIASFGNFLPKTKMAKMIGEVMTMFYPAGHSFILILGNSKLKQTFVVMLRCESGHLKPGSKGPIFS
Protocol: as §1, §2

hT2R14 [1] = target: T1, hT2R14 (Homo sapiens (Human), UniProt Q9NYV8); assay: hT2R14 antagonist high-throughput FLIPR assay, stable cell line with G16g44, agonist aristolochic acid; assay type: cell-based
T1 sequence (Q9NYV8 whole entry): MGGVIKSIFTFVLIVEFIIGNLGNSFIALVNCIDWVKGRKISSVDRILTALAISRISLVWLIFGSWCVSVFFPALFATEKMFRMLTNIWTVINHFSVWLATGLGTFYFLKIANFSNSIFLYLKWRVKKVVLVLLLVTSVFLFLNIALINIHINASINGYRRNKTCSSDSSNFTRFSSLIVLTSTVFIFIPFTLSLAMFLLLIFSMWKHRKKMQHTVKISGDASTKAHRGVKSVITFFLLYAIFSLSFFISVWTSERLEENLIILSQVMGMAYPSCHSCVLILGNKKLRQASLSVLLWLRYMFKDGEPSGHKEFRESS
Procedure, shortened: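 HEK293 cells stably expressing hT2R14 with chimeric G16g44 were stimulated with aristolochic acid (3 μM), giving 70-80% of maximal receptor activity. Test compounds were added together with the agonist, and antagonism was read as fluorescent calcium signal on FLIPR.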

hT2R14 [2] = target: T1, hT2R14; assay: hT2R panel inhibition, transient HEK293 G16g44, agonist Aristolochic Acid 2 μM; assay type: cell-based; settings: HEK293, compound at 25 μM
Protocol: as §1

hT2R71 = hT2R71 (Homo sapiens (Human), UniProt P59536); assay: hT2R panel inhibition, transient HEK293 G16g44, agonist Picric Acid 10 μM; assay type: cell-based; settings: HEK293, compound at 25 μM; receptor activated to EC80 with the corresponding agonist; read-out: screening result against bitter receptor 71
hT2R71, sequence (P59536 whole entry): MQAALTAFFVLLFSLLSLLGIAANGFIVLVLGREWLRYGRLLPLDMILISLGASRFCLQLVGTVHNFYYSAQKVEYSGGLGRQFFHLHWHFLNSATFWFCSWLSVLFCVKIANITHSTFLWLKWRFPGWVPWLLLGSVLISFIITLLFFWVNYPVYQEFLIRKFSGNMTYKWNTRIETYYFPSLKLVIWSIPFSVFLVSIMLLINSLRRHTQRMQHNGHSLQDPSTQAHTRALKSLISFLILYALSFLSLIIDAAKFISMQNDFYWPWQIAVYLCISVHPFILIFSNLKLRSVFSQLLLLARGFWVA
Protocol: as §1, §2

hT2R64 = hT2R64 (Homo sapiens (Human), UniProt P59538); assay: hT2R panel inhibition, transient HEK293 G16g44, agonist Aristolochic Acid 1 μM; assay type: cell-based; settings: HEK293, compound at 25 μM; receptor activated to EC80 with the corresponding agonist; read-out: screening result against bitter receptor 64
hT2R64, sequence (P59538 whole entry): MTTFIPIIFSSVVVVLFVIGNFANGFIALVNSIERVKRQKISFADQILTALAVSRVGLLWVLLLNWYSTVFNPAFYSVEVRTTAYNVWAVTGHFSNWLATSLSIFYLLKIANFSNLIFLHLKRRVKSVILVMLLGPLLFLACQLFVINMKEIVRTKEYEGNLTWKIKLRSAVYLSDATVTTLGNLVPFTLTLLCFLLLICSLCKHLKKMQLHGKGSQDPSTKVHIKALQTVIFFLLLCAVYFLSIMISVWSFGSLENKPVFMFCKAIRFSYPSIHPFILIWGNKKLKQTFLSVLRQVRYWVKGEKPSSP
Protocol: as §1, §2

hT2R61 = hT2R61 (Homo sapiens (Human), UniProt P59537); assay: hT2R panel inhibition, transient HEK293 G16g44, agonist Aristolochic Acid 25 nM; assay type: cell-based; settings: HEK293, compound at 25 μM
hT2R61, sequence (P59537 whole entry): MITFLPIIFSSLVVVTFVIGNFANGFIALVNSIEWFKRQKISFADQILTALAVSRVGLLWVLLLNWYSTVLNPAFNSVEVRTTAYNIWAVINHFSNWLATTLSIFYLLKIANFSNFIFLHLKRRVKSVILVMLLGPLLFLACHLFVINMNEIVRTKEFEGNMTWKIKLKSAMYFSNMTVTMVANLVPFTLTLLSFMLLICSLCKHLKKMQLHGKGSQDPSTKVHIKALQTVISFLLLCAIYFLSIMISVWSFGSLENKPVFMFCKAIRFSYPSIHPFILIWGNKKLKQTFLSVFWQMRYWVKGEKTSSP
Protocol: as §1, §2

hT2R5 = hT2R5 (Homo sapiens (Human), UniProt Q9NYW4); assay: hT2R panel inhibition, transient HEK293 G16g44, agonist Picoline 10 mM; assay type: cell-based; settings: HEK293, compound at 25 μM; receptor activated to EC80 with the corresponding agonist; read-out: screening result against bitter receptor 5
hT2R5, sequence (Q9NYW4 whole entry): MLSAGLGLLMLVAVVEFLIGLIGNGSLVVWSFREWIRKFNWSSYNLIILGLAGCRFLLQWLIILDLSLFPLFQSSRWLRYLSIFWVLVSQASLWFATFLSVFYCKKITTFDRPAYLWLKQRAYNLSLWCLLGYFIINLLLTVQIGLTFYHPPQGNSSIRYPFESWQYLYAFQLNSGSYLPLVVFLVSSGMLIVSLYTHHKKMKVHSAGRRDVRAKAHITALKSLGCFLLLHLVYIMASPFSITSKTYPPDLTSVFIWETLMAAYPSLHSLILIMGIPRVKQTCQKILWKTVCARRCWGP
Protocol: as §1, §2

hT2R10 = hT2R10 (Homo sapiens (Human), UniProt Q9NYW0); assay: hT2R panel inhibition, transient HEK293 G16g44, agonist Strychnine 50 μM; assay type: cell-based; settings: HEK293, read-out: screening result against bitter receptor 10, compound at 25 μM; receptor activated to EC80 with the corresponding agonist
hT2R10, sequence (Q9NYW0 whole entry): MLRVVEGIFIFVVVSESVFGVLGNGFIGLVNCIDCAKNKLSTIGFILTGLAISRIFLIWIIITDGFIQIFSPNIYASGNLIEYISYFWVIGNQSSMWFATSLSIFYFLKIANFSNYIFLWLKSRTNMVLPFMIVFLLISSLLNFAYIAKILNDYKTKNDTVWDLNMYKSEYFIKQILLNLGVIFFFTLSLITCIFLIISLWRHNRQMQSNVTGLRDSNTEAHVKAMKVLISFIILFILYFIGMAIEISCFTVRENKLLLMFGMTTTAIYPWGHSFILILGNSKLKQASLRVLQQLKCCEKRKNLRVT
Protocol: as §1, §2

hT2R7 = hT2R7 (Homo sapiens (Human), UniProt Q9NYW3); assay: hT2R panel inhibition, transient HEK293 G16g44, agonist Chloroquine pH6.5 10 mM; assay type: cell-based; settings: HEK293, compound at 25 μM
hT2R7, sequence (Q9NYW3 whole entry): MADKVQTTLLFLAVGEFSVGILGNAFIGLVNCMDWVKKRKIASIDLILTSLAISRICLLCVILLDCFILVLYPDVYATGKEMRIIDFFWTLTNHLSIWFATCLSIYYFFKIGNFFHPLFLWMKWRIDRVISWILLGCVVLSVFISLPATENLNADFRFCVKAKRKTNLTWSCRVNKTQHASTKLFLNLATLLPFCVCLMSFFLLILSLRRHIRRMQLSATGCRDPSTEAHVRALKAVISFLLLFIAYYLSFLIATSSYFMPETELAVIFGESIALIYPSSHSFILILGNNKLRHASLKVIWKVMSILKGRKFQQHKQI
Protocol: as §1, §2

hT2R16 = hT2R16 (Homo sapiens (Human), UniProt Q9NYV7); assay: hT2R panel inhibition, transient HEK293 G16g44, agonist Salicin 1 mM; assay type: cell-based; settings: HEK293, compound at 25 μM; receptor activated to EC80 with the corresponding agonist; read-out: screening result against bitter receptor 16
hT2R16, sequence (Q9NYV7 whole entry): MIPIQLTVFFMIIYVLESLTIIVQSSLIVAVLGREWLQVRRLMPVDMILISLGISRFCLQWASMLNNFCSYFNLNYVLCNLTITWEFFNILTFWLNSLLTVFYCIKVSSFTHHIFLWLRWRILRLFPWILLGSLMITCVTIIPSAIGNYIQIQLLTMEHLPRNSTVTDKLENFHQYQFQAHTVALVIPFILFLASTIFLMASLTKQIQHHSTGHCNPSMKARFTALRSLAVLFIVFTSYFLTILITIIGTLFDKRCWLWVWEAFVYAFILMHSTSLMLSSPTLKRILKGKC
Protocol: as §1, §2

[3] = receptor activated to EC80 with the corresponding agonist, read-out: screening result against bitter receptor 14
[4] = receptor activated to EC80 with the corresponding agonist, read-out: screening result against bitter receptor 61
[5] = receptor activated to EC80 with agonist, read-out: inhibition of bitter receptor 7
[6] = receptor activated to EC80 with agonist, read-out: inhibition of bitter receptor 14

Row | SMILES | screening result against bitter receptor 44 (hT2R44) | screening result against bitter receptor 55 (hT2R55) | screening result against bitter receptor 63 (hT2R63) | inhibition at 25 µM (hT2R3) [%] | inhibition at 25 µM (hT2R14 [2]; [3]) [%] | inhibition at 25 µM (hT2R71) [%] | inhibition at 25 µM (hT2R64) [%] | inhibition at 25 µM (hT2R61; [4]) [%] | further results
1 | COc1ccc(CN(Cc2ccc(C(=O)O)cc2)S(=O)(=O)c2ccc(O)cc2)cc1 [Example 5-44, 4-((4-hydroxy-N-(4-methoxybenzyl)phenylsulfonamido)methyl)-benzoic acid] | ++ (40% to 60% inhibition = ++) | + (20% to 40% inhibition = +) | ++++ (80% or greater inhibition = ++++) | 20 to 40 | > 80 | 40 to 60 | 40 to 60 | > 80 | IC50 (hT2R14 [1]; read-out: IC50 on hT2R14 bitter receptor): 3430 nM
2 | COc1ccc(CN(Cc2ccccc2)S(=O)(=O)c2ccc(CC(=O)O)cc2)cc1 [Example 5-47, 2-(4-(N-benzyl-N-(4-methoxybenzyl)sulfamoyl)phenyl)acetic acid] | + (20% to 40% inhibition = +) | – | + (20% to 40% inhibition = +) | 20 to 40 | – | 20 to 40 | – | 60 to 80 | –
3 | COc1ccc(CN(Cc2ccccc2)C(=O)c2ccc(C(=O)O)cc2)cc1 [Example 5-49, 4-(benzyl(4-methoxybenzyl)carbamoyl)benzoic acid] | + (20% to 40% inhibition = +) | ++++ (80% or greater inhibition = ++++) | + (20% to 40% inhibition = +) | 20 to 40 | – | 20 to 40 | 40 to 60 | 60 to 80 | –
4 | CN(Cc1ccccc1)S(=O)(=O)c1ccc(C(=O)O)cc1 [Example 5-55, 4-(N-benzyl-N-methylsulfamoyl)benzoic acid] | – | ++ (40% to 60% inhibition = ++) | ++++ (80% or greater inhibition = ++++) | 20 to 40 | > 80 | – | 40 to 60 | 20 to 40 | inhibition at 25 µM (hT2R5): 20 to 40%
5 | COc1ccc(CNS(=O)(=O)c2ccc(C(=O)O)cc2)cc1 [Example 5-56, 4-(N-(4-methoxybenzyl)sulfamoyl)benzoic acid] | – | – | – | 20 to 40 | – | – | 20 to 40 | – | –
6 | COc1ccc(CN(Cc2ccccc2)S(=O)(=O)CCC(=O)O)cc1 [Example 5-57, 3-(N-benzyl-N-(4-methoxybenzyl)sulfamoyl)propanoic acid] | – | +++ (60% to 80% inhibition = +++) | – | 20 to 40 | – | – | 40 to 60 | > 80 | inhibition at 25 µM (hT2R10): 20 to 40%
7 | COc1ccc(CN(Cc2cccs2)S(=O)(=O)c2ccc(C(=O)O)cc2)cc1 [Example 5-61, 4-(N-(4-methoxybenzyl)-N-(thiophen-2-ylmethyl)sulfamoyl)benzoic acid] | – | + (20% to 40% inhibition = +) | ++++ (80% or greater inhibition = ++++) | – | – | 20 to 40 | 20 to 40 | 40 to 60 | inhibition at 25 µM (hT2R5): 20 to 40%
8 | COc1ccc(CN(Cc2cccc(C)c2)S(=O)(=O)c2ccc(C(=O)O)cc2)cc1 [Example 5-65, 4-(N-(4-methoxybenzyl)-N-(3-methylbenzyl)sulfamoyl)benzoic acid] | – | – | – | 20 to 40 | – | – | – | – | –
9 | COc1ccc(CN(Cc2ccncc2)S(=O)(=O)c2ccc(C(=O)O)cc2)cc1 [Example 5-86, 4-(N-(4-methoxybenzyl)-N-(pyridin-4-ylmethyl)sulfamoyl)benzoic acid] | + (20% to 40% inhibition = +) | – | +++ (60% to 80% inhibition = +++) | – | 20 to 40 | – | – | 60 to 80 | –
10 | N#Cc1ccccc1CN(Cc1ccccc1)S(=O)(=O)c1ccc(C(=O)O)cc1 [Example 5-92, 4-(N-benzyl-N-(2-cyanobenzyl)sulfamoyl)benzoic acid] | ++++ (80% or greater inhibition = ++++) | ++++ (80% or greater inhibition = ++++) | ++++ (80% or greater inhibition = ++++) | 20 to 40 | > 80 | 40 to 60 | > 80 | > 80 | inhibition at 25 µM (hT2R5): 20 to 40%; inhibition at 25 µM (hT2R7; receptor activated to EC80 with the corresponding agonist, read-out: screening result against bitter receptor 7): 20 to 40%; inhibition at 25 µM (hT2R10): 20 to 40%; inhibition at 25 µM (hT2R16): 20 to 40%
11 | COc1ccc(CN(Cc2ccccc2)C(=O)Nc2ccc(C(=O)O)cc2)cc1 [Example 5-94, 4-(3-benzyl-3-(4-methoxybenzyl)ureido)benzoic acid] | ++ (40% to 60% inhibition = ++) | – | – | 20 to 40 | – | 20 to 40 | 60 to 80 | 20 to 40 | –
12 | COc1ccc(C(NS(=O)(=O)c2ccc(C(=O)O)cc2)c2ccccc2)cc1 (stereo not shown) [Example 5-97, 4-(N-((4-methoxyphenyl)(phenyl)methyl)sulfamoyl) benzoic acid] | + (20% to 40% inhibition = +) | – | +++ (60% to 80% inhibition = +++) | – | 20 to 40 | – | 20 to 40 | 20 to 40 | inhibition at 25 µM (hT2R16): 60 to 80%
13 | O=C(O)c1ccc(CN(Cc2ccc(F)cc2)S(=O)(=O)c2ccc(O)cc2)cc1 [Example 5-107, 4-((N-(4-fluorobenzyl)-4-hydroxyphenylsulfonamido)methyl)benzoic acid] | + (20% to 40% inhibition = +) | + (20% to 40% inhibition = +) | +++ (60% to 80% inhibition = +++) | – | 60 to 80 | 20 to 40 | 60 to 80 | > 80 | –
14 | Cc1c(F)cccc1NS(=O)(=O)c1ccc2c(c1)c(=O)n(C)c(=O)n2C [Example 6-7, N-(3-fluoro-2-methylphenyl)-1,3-dimethyl-2,4-dioxo-1,2,3,4-tetrahydroquinazoline-6-sulfonamide] | – | – | – | – | – | – | – | – | inhibition of bitter receptor 63 (hT2R63): + (20% to 40% inhibition = +); inhibition at 25 µM (hT2R7; [5]): 20 to 40%; inhibition at 25 µM (hT2R14 [2]; [6]): 40 to 60%
15 | Cc1ccccc1NS(=O)(=O)c1ccc2c(c1)c(=O)n(C)c(=O)n2C [Example 6-9, 1,3-dimethyl-2,4-dioxo-N-o-tolyl-1,2,3,4-tetrahydroquinazoline-6-sulfonamide] | – | – | – | – | – | – | – | – | inhibition of bitter receptor 44 (hT2R44; receptor activated to EC80 with agonist): + (20% to 40% inhibition = +); inhibition of bitter receptor 63 (hT2R63): + (20% to 40% inhibition = +); inhibition at 25 µM (hT2R7; [5]): 40 to 60%; IC50 (hT2R14 [1]; Table D, read-out: hT2R14 IC50): 1730 nM; inhibition at 25 µM (hT2R14 [2]; [6]): > 80%; inhibition at 25 µM (hT2R61; receptor activated to EC80 with agonist, read-out: inhibition of bitter receptor 61): 20 to 40%
